# Results from article PMC9688530, “Development of Ic-ELISA and Colloidal Gold Lateral Flow Immunoassay for the Determination of Cypermethrin in Agricultural Samples” (Biosensors, 2022).
# Legend:
# anti-CYP mAb 2G7H9 = assay: ic-ELISA based on mAb 2G7H9; format: binding, mouse
# Method: (§1) The ic-ELISA procedure was executed according to previous studies. Each well of the ELISA plate was coated with 100 μL of coating antigen diluted with carbonate buffer (0.05 mol/L, pH 9.6) at 4 °C overnight. After washing three times with phosphate-buffered saline (PBS, 0.01 mol/L, pH 7.4) containing 1‰ Tween-20, the wells were blocked with 200 μL of 5% skim milk powder in PBS at 37 °C for two hours. After the same washing procedure, 50 μL of CYP standard solution and 50 μL of mAb were pipetted into each well and incubated at 37 °C for one hour. After washing five times, 100 μL per well of 0.5‰ horseradish peroxidase-labeled goat anti-mouse IgG antibody in PBS was added and incubated at 37 °C for one hour. After the wells were washed five times, 100 μL per well of fresh substrate solution (0.1 mg/mL 3,3′,5,5′-tetramethylbenzidine and 0.024‰ H2O2 in 0.1 M citrate acid buffer) was added to react at 37 °C for 15 min. Then, 50 μL per well of 0.2 mol/L H2SO4 was used to stop the reaction, and the absorbances were read at 450 nm with a microplate reader.
# Under the optimal conditions, a standard curve was constructed using a series of concentrations of standard solutions (50, 25, 12.5, 6.25, 3.13, 1.56, 0.78, 0.39 and 0.20 ng/mL) to assess the sensitivity of ic-ELISA. The IC50 and linear range (IC10–IC90) were calculated by a logistic equation established with Origin Pro 8.0.
# The CRs of the ic-ELISA were calculated with the following equation:CR (%) = (IC50 of CYP/IC50 of analogues) × 100%.
# anti-CYP mAb 1E7D5 = assay: homologous ic-ELISA, hapten 1 coating antigen, mAb 1E7D5; format: binding, mouse; conditions: hapten 1 as coating antigen
# Method: as §1
# (§2) After five immunizations, the anti-serum of five mice was collected to determine the serum titer. All mouse serum had high titers ranging from 1:64,000 to 1:256,000. […] Then, the sensitivity of these monoclonal antibodies was evaluated by homologous ic-ELISA. […] The subtype of mAb 2G7H9 was determined as IgG2b by a kit. […]
# anti-CYP mAb 6F1G10 = assay: homologous ic-ELISA, hapten 1 coating antigen, mAb 6F1G10; format: binding, mouse; conditions: hapten 1 as coating antigen
# Method: as §1, §2
# monoclonal antibody = tested on: monoclonal antibody; parameters: method as in doi:10.1080/09540105.2013.794328; conditions: ic-ELISA based on a monoclonal antibody; cited from earlier work
# [1] = parameters: method as in doi:10.1016/j.cropro.2009.01.003; conditions: cited from earlier work
# [2] = parameters: method as in doi:10.11895/j.issn.0253-3820.160428; conditions: cited from earlier work
structure (smiles),measurement,setting,value
"CC1(C)C(C=C(Cl)Cl)C1C(=O)OC(C#N)c1cccc(Oc2ccccc2)c1 (stereo not shown) [CYP, Cypermethrin]",IC50,"anti-CYP mAb 2G7H9; hapten 5-BSA as coating antigen, before buffer optimization",5.75 ng/mL
same,IC50,"anti-CYP mAb 2G7H9; homologous ic-ELISA, hapten 1 as coating antigen",19.14 ng/mL
same,IC50,"anti-CYP mAb 2G7H9; homologous ic-ELISA, hapten 1 as coating antigen, listed as Cypermethrin",19 ng/mL
same,limit of detection (IC10),anti-CYP mAb 2G7H9; optimal conditions,0.40 ng/mL
same,linear range (IC10–IC90),anti-CYP mAb 2G7H9; optimal conditions,0.40 to 7.87 ng/mL
same,IC50,"anti-CYP mAb 2G7H9; optimal conditions, coating antigen hapten 5-BSA, PBS pH 7.4, 10% methanol, 0.3 mol/L NaCl",2.49 ng/mL
same,IC50,anti-CYP mAb 2G7H9; working buffer: 10% Acetone,7.99 ng/mL
same,IC50,anti-CYP mAb 2G7H9; working buffer: 10% Acetonitrile,8.88 ng/mL
same,IC50,anti-CYP mAb 2G7H9; working buffer: 10% Dimethyl sulfoxide,11.03 ng/mL
same,IC50,anti-CYP mAb 2G7H9; working buffer: 10% Methanol (solvent type comparison),7.67 ng/mL
same,IC50,anti-CYP mAb 2G7H9; working buffer: Methanol 5%,30.63 ng/mL
same,IC50,anti-CYP mAb 2G7H9; working buffer: Methanol 20%,20.59 ng/mL
same,IC50,anti-CYP mAb 2G7H9; working buffer: Methanol 40%,24.47 ng/mL
same,IC50,anti-CYP mAb 2G7H9; working buffer: Na+ 0.07 mol/L,43.31 ng/mL
same,IC50,anti-CYP mAb 2G7H9; working buffer: Na+ 0.14 mol/L,9.22 ng/mL
same,IC50,anti-CYP mAb 2G7H9; working buffer: Na+ 0.2 mol/L,13.58 ng/mL
same,IC50,anti-CYP mAb 2G7H9; working buffer: Na+ 0.3 mol/L,2.42 ng/mL
same,IC50,anti-CYP mAb 2G7H9; working buffer: Na+ 0.4 mol/L,2.94 ng/mL
same,IC50,anti-CYP mAb 2G7H9; working buffer: pH 6,4.41 ng/mL
same,IC50,anti-CYP mAb 2G7H9; working buffer: pH 7,5.24 ng/mL
same,IC50,anti-CYP mAb 2G7H9; working buffer: pH 7.4,3.09 ng/mL
same,IC50,anti-CYP mAb 2G7H9; working buffer: pH 8,8.06 ng/mL
same,IC50,anti-CYP mAb 2G7H9; working buffer: pH 9,4.03 ng/mL
same,IC50,anti-CYP mAb 1E7D5,314 ng/mL
same,IC50,anti-CYP mAb 6F1G10,575 ng/mL
same,IC50,monoclonal antibody,1.7 ng/mL
same,minimum detection concentration,[1],800 ng/mL
same,sensitivity,[2],5000 ng/mL
